≈ marks a conversion by molar mass, not a printed value.
What was measured:
Assay type in all cases: physicochemical
[1] = Solubility of crystalline polymorph in biologically relevant media (water, SGF, FaSSIF, FeSSIF), HPLC of supernatant, pH, XRPD of remaining solids; conditions: for solubility at 1 h / solubility at 4 h / solubility at 24 h: thermodynamic from solid, 37° C.; for pH: solubility test
Method: The solubility of crystalline polymorph Form 1 was tested in biologically relevant media: water, simulated gastric fluid (SGF), fasted state simulated intestinal fluid (FaSSIF) and fed state simulated intestinal fluid (FeSSIF). For example, the crystalline polymorph was suspended in the solvent with stirring at 400 rpm at 37° C. for 1 h, 4 h and 24 h followed by filtration. The supernatant concentration was measured by HPLC (Mobile phase A: 0.1% NH3 in H2O, Mobile phase B: acetonitrile; flow rate: 0.8 mL/min; injection volume: 5 μL). The remaining solids were tested by XRPD.
The solubility of crystalline polymorph Form 11 was tested in biologically relevant media: water, SGF, FaSSIF, and FeSSIF. For example, the crystalline polymorph was suspended in the solvent with stirring at 400 rpm at 37° C. for 1 h, 4 h and 24 h followed by filtration. The supernatant was measured by HPLC for concentration and the remaining solids were tested by XRPD.

[2] = Dynamic vapor sorption (DVS)
Method: TGA and DSC measurements indicated weight loss of 0.1% at 150° C. and an endothermic peak at 120.0° C.
Dynamic Vapor Sorption (DVS) was measured with a SMS DVS Intrinsic from Surface Measurement Systems (London, United Kingdom) using the following parameters: temperature: 25° C.; sample size: 10-20 mg; gas and flow rate: N2 and 200 mL/min; dm/dt: 0.002%/min; min. dm/dt stability duration: 10 min; max. equilibrium time: 180 min; relative humidity (RH) range: 0% RH-95% RH-0% RH; RH step size: 10%.

[3] = Physical and chemical stability under stressed conditions (HPLC, XRPD); conditions: 40° C./75% RH for 1 week
Method: Physical and chemical stability evaluation has been performed for crystalline polymorph Form 1 under stressed conditions. In the experiments, about 10 mg of the polymorph was placed into 4 ml glass vials that were stored under 40° C./75% RH for 1 week. HPLC was utilized to evaluate the degradation, and XPRD was used to evaluate the crystalline polymorph.

[4] = Slurry conversion (competitive) experiments for thermodynamic stability relationship; conditions: slurry of Form 1:Form 5 (1:1) in H2O:acetone (9:1) or H2O:ethanol (3:1), room temperature, 2 or 3 days
Method: To determine the thermodynamic stability relationship between Form 1 and Form 5, slurry conversion experiments were conducted. Specifically, Form 1 sample was added to 1.0 mL H2O:acetone (9:1 v:v) or 0.8 mL of H2O:ethanol (3:1 v:v) at room temperature. After equilibrium for 1 hr, the suspensions were filtered to obtain a saturated solution Form 1. To each saturated solution of Form 1:Form 5 (1:1) was added. After stirring at room temperature for 2 or 3 days, the solids were isolated for XRPD analysis.
To determine the thermodynamic stability relationship between Form 11 and Form 12, slurry conversion experiments were conducted. Specifically, Form 12 (2.5 mg) was added to 1.0 mL of 4% dichloromethane at room temperature. After equilibrium for 1 hour, the suspensions were filtered to obtain a saturated solution Form 12. To the saturated solution of Form 11:Form 12 (1:1) was added. After stirring at room temperature for 30 minutes, the solids were isolated for XRPD analysis. […] The pH of Form 11 solution (2.5 mg in 1 mL of 4% dichloromethane) and Form 12 solution (2.5 mg in 1 mL of 4% dichloromethane) was measured to be 8.25 and 7.98, respectively.

SMILES: Cc1nn(-c2nc(C3=CCC(C(F)(F)F)CC3)c(SC(C)C)s2)c(C(=O)O)c1-c1cccc(F)c1 (stereo not drawn) [Form 1, 4-(3-fluorophenyl)-1-(5-(isopropylthio)-4-(4-(trifluoromethyl)cyclohex-1-en-1-yl)thiazol-2-yl)-3-methyl-1H-pyrazole-5-carboxylic acid]
- Form change by XRPD of remaining solids ([1]; after solubility test in FaSSIF): one unknown peak was observed at about 31 2θ degrees
- Form change by XRPD of remaining solids ([1]; after solubility test in FeSSIF): no form change was observed
- Form change by XRPD of remaining solids ([1]; after solubility test in SGF): no form change was observed
- Form change by XRPD of remaining solids ([1]; after solubility test in water): no form change was observed
- solubility at 1 h ([1]; fasted state simulated intestinal fluid (FaSSIF), FaSSIF, 1 hr): 140 µg/mL (≈ 266 µM)
- solubility at 4 h ([1]; fasted state simulated intestinal fluid (FaSSIF), FaSSIF, 4 hr): 220 µg/mL (≈ 419 µM)
- solubility at 24 h ([1]; fasted state simulated intestinal fluid (FaSSIF), FaSSIF, 24 hr): 200 µg/mL (≈ 381 µM)
- solubility at 1 h ([1]; fed state simulated intestinal fluid (FeSSIF), FeSSIF, 1 hr): 170 µg/mL (≈ 323 µM)
- solubility at 4 h ([1]; fed state simulated intestinal fluid (FeSSIF), FeSSIF, 4 hr): 180 µg/mL (≈ 342 µM)
- solubility at 24 h ([1]; fed state simulated intestinal fluid (FeSSIF), FeSSIF, 24 hr): 140 µg/mL (≈ 266 µM)
- solubility at 1 h ([1]; simulated gastric fluid (SGF), simulated gastric fluid, SGF, 1 hr): 50 µg/mL (≈ 95.1 µM)
- solubility at 4 h ([1]; simulated gastric fluid (SGF), simulated gastric fluid, SGF, 4 hr): 30 µg/mL (≈ 57.1 µM)
- solubility at 24 h ([1]; simulated gastric fluid (SGF), simulated gastric fluid, SGF, 24 hr): 30 µg/mL (≈ 57.1 µM)
- pH ([1]; FaSSIF, 1 hr): 6.55
- pH ([1]; FaSSIF, 4 hr): 5.75
- pH ([1]; FaSSIF, 24 hr): 5.12
- pH ([1]; FeSSIF, 1 hr): 5.07
- pH ([1]; FeSSIF, 4 hr): 5.06
- pH ([1]; FeSSIF, 24 hr): 4.94
- pH ([1]; H2O, 1 hr): 7.00
- pH ([1]; H2O, 4 hr): 7.82
- pH ([1]; H2O, 24 hr): 6.68
- pH ([1]; SGF, 1 hr): 1.93
- pH ([1]; SGF, 4 hr): 1.75
- pH ([1]; SGF, 24 hr): 1.83
- solubility at 1 h ([1]; water, H2O, 1 hr): 490 µg/mL (≈ 932 µM)
- solubility at 4 h ([1]; water, H2O, 4 hr): 1300 µg/mL (≈ 2470 µM)
- solubility at 24 h ([1]; water, H2O, 24 hr): 1700 µg/mL (≈ 3230 µM)
- water uptake (DVS) ([2]; 25° C./80% relative humidity): 0.6%
- form change before and after DVS ([2]; XRPD, FIG. 1E): no form change was observed
- hygroscopicity ([2]; from DVS at 25° C./80% relative humidity): slightly hygroscopic
- physical and chemical stability [3]: physically stable
- thermodynamic stability relationship between Form 1 and Form 5 [4]: more thermodynamically stable than Form 5
